From ChEMBL document CHEMBL4420076, “Amylin and calcitonin receptor agonist” (2017)
Numbered stars: 1 amine (or outer) side, 2 acyl side, 3 side chain; on linkers, the order of the positions; unused ones are H or OH. Square brackets hold non-standard residues; d marks the D form. Peptide text beside a SMILES is read from it. * marks the point of attachment. C20 diacid = O=C(O)CCCCCCCCCCCCCCCCCCC(=O)*; C16 diacid = O=C(O)CCCCCCCCCCCCCCC(=O)*; γGlu = O=C(O)[C@H](CCC(=O)[*:2])N[*:1]; AEEA = NCCOCCOCC(=O)O

Experiments:
[1] = Solubility in 100 mM glycylglycine buffer at pH 4.0 incubated for 18 hrs by UPLC analysis; type: physicochemical
Calcitonin receptor [2] = biological target: T1, Calcitonin receptor (Homo sapiens, UniProt P30988); assay: Agonist activity at human calcitonin receptor expressed in BHK570 cells assessed as increase in intracellular cAMP concentration incubated for 3 hrs in absence of albumin by CRE luciferase reporter gene assay; type: functional, cell-based
T1 sequence (P30988 whole entry): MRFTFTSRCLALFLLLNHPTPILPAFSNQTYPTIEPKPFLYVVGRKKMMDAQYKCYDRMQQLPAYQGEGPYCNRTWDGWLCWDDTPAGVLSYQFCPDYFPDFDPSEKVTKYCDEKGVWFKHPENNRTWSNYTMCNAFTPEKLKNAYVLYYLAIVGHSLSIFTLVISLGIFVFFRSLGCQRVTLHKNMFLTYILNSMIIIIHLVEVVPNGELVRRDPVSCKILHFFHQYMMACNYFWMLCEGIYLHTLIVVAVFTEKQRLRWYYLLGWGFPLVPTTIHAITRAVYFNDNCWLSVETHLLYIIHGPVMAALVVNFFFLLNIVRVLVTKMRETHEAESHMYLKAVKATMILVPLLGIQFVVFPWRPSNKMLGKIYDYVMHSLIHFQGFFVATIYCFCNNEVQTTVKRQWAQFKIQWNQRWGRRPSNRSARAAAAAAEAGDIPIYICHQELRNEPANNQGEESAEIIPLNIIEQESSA

[3] = Stability in pH 7.5 buffer assessed as compound recovery at 1 uM by Thioflavin T based fluorescence assay; type: physicochemical; details: read-out: Drug recovery
Rattus norvegicus [4] = assay: Reduction in food intake in Sprague-Dawley rat at 3 nmol/kg measured 0 to 24 hrs post dose relative to control; type: functional; set-up: scale not given: the % may be the effect or the level left
[5] = Solubility in 100 mM bistrispropane buffer at pH 7.0 incubated for 18 hrs by UPLC analysis; type: physicochemical
[6] = biological target: T2, Amylin receptor AMY3; CALCR/RAMP3 (Rattus norvegicus, UniProt P32214+Q9JJ73); assay: Displacement of [125I]-labeled rat amylin from rat amylin receptor expressed in BHK tkts13 cell membranes co-expressing RAMP3 incubated for 120 mins by scintillation proximity assay
T2 sequence (P32214 whole entry): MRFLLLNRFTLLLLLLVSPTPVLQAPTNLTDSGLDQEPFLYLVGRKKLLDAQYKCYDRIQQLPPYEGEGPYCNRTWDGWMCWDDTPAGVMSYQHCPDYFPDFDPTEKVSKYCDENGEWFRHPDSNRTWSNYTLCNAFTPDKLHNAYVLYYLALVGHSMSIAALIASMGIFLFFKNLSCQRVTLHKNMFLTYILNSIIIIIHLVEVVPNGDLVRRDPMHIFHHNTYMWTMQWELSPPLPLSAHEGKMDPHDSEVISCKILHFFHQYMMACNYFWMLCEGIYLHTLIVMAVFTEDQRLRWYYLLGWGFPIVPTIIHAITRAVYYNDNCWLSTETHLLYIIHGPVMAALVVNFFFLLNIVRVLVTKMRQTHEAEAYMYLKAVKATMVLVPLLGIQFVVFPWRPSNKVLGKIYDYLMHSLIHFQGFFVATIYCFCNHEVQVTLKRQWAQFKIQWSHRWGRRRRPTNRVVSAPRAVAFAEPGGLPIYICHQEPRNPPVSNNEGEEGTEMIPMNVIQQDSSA
T2 sequence (Q9JJ73 whole entry): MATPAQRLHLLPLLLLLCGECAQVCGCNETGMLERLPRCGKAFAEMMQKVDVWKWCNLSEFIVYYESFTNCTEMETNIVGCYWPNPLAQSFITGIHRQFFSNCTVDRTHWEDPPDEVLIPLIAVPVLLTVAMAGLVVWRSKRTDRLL

[7] = Solubility in 100 mM glycylglycine buffer at pH 3.0 incubated for 18 hrs by UPLC analysis; type: physicochemical
Calcitonin receptor [8] = biological target: T1, Calcitonin receptor; assay: Agonist activity at human calcitonin receptor expressed in BHK570 cells assessed as increase in intracellular cAMP concentration incubated for 3 hrs in presence of 10% FBS by CRE luciferase reporter gene assay; type: functional, cell-based
[9] = biological target: T3, Amylin receptor AMY3; CALCR/RAMP3 (Homo sapiens, UniProt O60896+P30988); assay: Displacement of [125I]-labeled rat amylin from human amylin receptor expressed in BHK570 cell membranes co-expressing RAMP3 incubated for 120 mins by scintillation proximity assay
T3 sequence (P30988 whole entry): T1 sequence (P30988 whole entry)
T3 sequence (O60896 whole entry): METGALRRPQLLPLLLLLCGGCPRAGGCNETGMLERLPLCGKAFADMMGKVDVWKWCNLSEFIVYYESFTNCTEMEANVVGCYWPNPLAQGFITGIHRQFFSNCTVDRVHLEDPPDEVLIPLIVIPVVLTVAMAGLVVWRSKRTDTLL

[10] = Solubility in 100 mM bistrispropane buffer at pH 6.5 incubated for 18 hrs by UPLC analysis; type: physicochemical
[11] = Solubility in 100 mM bistrispropane buffer at pH 7.5 incubated for 18 hrs by UPLC analysis; type: physicochemical
[12] = biological target: T3, Amylin receptor AMY3; CALCR/RAMP3; assay: Agonist activity at human amylin receptor expressed in BHK570 cells co-expressing RAMP3 assessed as increase in intracellular cAMP concentration incubated for 3 hrs in presence of 10% FBS by CRE luciferase reporter gene assay; type: functional, cell-based
[13] = Solubility in 100 mM bistrispropane buffer at pH 6.0 incubated for 18 hrs by UPLC analysis; type: physicochemical
Rattus norvegicus [14] = assay: Reduction in food intake in Sprague-Dawley rat at 3 nmol/kg measured 24 to 48 hrs post dose relative to control; type: functional; set-up: scale not given: the % may be the effect or the level left
[15] = Stability in pH 7.5 buffer assessed as lag time for fibril formation at 1 uM by Thioflavin T based fluorescence assay; type: physicochemical; details: pH 7.5, 1 µM
[16] = Solubility in 100 mM bistrispropane buffer at pH 8.0 incubated for 18 hrs by UPLC analysis; type: physicochemical
[17] = biological target: T3, Amylin receptor AMY3; CALCR/RAMP3; assay: Agonist activity at human amylin receptor expressed in BHK570 cells co-expressing RAMP3 assessed as increase in intracellular cAMP concentration incubated for 3 hrs in absence of albumin by CRE luciferase reporter gene assay; type: functional, cell-based
[18] = Solubility in 100 mM glycylglycine buffer at pH 5.0 incubated for 18 hrs by UPLC analysis; type: physicochemical
Calcitonin receptor [19] = biological target: T1, Calcitonin receptor; assay: Displacement of [125I]-labeled human calcitonin from human calcitonin receptor expressed in BHK tkts13 cell membranes incubated for 1 hr by scintillation proximity assay

Structure (SMILES)	solubility at 18 h [1] [µM]	EC50 (Calcitonin receptor [2]) [nM]	remaining at 1 µM [3] [%]	Activity (Rattus norvegicus [4]) [%]	solubility at 18 h [5] [µM]	IC50 [6] [nM]	solubility at 18 h [7] [µM]	EC50 (Calcitonin receptor [8]) [nM]	IC50 [9] [nM]	solubility at 18 h [10] [µM]	solubility at 18 h [11] [µM]	EC50 [12] [nM]	solubility at 18 h [13] [µM]	Activity (Rattus norvegicus [14]) [%]	Time [15] [h]	solubility at 18 h [16] [µM]	EC50 [17] [nM]	solubility at 18 h [18] [µM]	IC50 (Calcitonin receptor [19]) [nM]
CC(C)C[C@H](NC(=O)CNC(=O)[C@H](CO)NC(=O)[C@H](C)NC(=O)COCCOCCNC(=O)COCCOCCNC(=O)CC[C@H](NC(=O)CCCCCCCCCCCCCCCCCCC(=O)O)C(=O)O)C(=O)N[C@@H](CO)C(=O)N[C@H](C(=O)N[C@@H](C)C(=O)N[C@H](C(=O)N[C@@H](CC(C)C)C(=O)NCC(=O)N[C@@H](CCCNC(=N)N)C(=O)N[C@@H](CC(C)C)C(=O)N[C@@H](CO)C(=O)N[C@@H](CCC(N)=O)C(=O)N[C@@H](CCC(=O)O)C(=O)N[C@@H](CC(C)C)C(=O)N[C@@H](Cc1cnc[nH]1)C(=O)N[C@@H](CCC(=O)O)C(=O)N[C@@H](CC(C)C)C(=O)N[C@@H](CCC(N)=O)C(=O)N[C@H](C(=O)N[C@@H](Cc1ccc(O)cc1)C(=O)N1CCC[C@H]1C(=O)N[C@@H](CCCNC(=N)N)C(=O)N[C@H](C(=O)N[C@@H](CCC(=O)O)C(=O)N[C@H](C(=O)NCC(=O)N[C@@H](CO)C(=O)NCC(=O)N[C@H](C(=O)N[C@@H](Cc1ccc(O)cc1)C(N)=O)[C@@H](C)O)[C@@H](C)O)[C@@H](C)O)[C@@H](C)O)C(C)C)[C@@H](C)O	≥ 200	0.052	100	22	≥ 200	0.029	≥ 200	0.068	0.166	≥ 200	≥ 200	0.123	≥ 200	19	> 45	≥ 200			
CC(C)C[C@H](NC(=O)[C@H](C)NC(=O)[C@H](C)NC(=O)[C@@H](NC(=O)[C@H](CO)NC(=O)[C@H](CC(C)C)NC(=O)[C@H](CCC(=O)O)NC(=O)[C@H](CO)NC(=O)[C@H](C)NC(=O)CCCCCCCCCCCCCCC(=O)O)[C@@H](C)O)C(=O)NCC(=O)N[C@@H](CCCNC(=N)N)C(=O)N[C@@H](CC(C)C)C(=O)N[C@@H](CO)C(=O)N[C@@H](C)C(=O)N[C@@H](CCC(=O)O)C(=O)N[C@@H](CC(C)C)C(=O)N[C@@H](Cc1cnc[nH]1)C(=O)N[C@@H](CCC(=O)O)C(=O)N[C@@H](CC(C)C)C(=O)N[C@@H](C)C(=O)N[C@H](C(=O)N[C@@H](CC(C)C)C(=O)N1CCC[C@H]1C(=O)N[C@@H](CCCNC(=N)N)C(=O)N[C@H](C(=O)N[C@@H](CCC(=O)O)C(=O)N[C@H](C(=O)NCC(=O)N[C@@H](CO)C(=O)NCC(=O)N[C@@H](CO)C(=O)N1CCC[C@H]1C(N)=O)[C@@H](C)O)[C@@H](C)O)[C@@H](C)O ({C16 diacid}-ASELSTAALGRLSAELHELATLPRTETGSGSP-NH2)	≥ 200			28	≥ 200	0.064	≥ 200	0.003	0.015	≥ 200	≥ 200	0.004	≥ 200	-2		≥ 200	0.01	≥ 200	
CC(C)C[C@H](NC(=O)[C@H](C)NC(=O)[C@H](C)NC(=O)[C@@H](NC(=O)[C@H](CO)NC(=O)[C@H](CC(C)C)NC(=O)[C@H](CCC(=O)O)NC(=O)[C@H](CO)NC(=O)[C@H](C)NC(=O)COCCOCCNC(=O)COCCOCCNC(=O)CC[C@H](NC(=O)CCCCCCCCCCCCCCCCCCC(=O)O)C(=O)O)[C@@H](C)O)C(=O)NCC(=O)N[C@@H](CCCNC(=N)N)C(=O)N[C@@H](CC(C)C)C(=O)N[C@@H](CO)C(=O)N[C@@H](C)C(=O)N[C@@H](CCC(=O)O)C(=O)N[C@@H](CC(C)C)C(=O)N[C@@H](Cc1cnc[nH]1)C(=O)N[C@@H](CCC(=O)O)C(=O)N[C@@H](CC(C)C)C(=O)N[C@@H](C)C(=O)N[C@H](C(=O)N[C@@H](CC(C)C)C(=O)N1CCC[C@H]1C(=O)N[C@@H](CCCNC(=N)N)C(=O)N[C@H](C(=O)N[C@@H](CCC(=O)O)C(=O)N[C@H](C(=O)NCC(=O)N[C@@H](CO)C(=O)NCC(=O)N[C@@H](CO)C(=O)N1CCC[C@H]1C(N)=O)[C@@H](C)O)[C@@H](C)O)[C@@H](C)O ({C20 diacid-γGlu-AEEA-AEEA}-ASELSTAALGRLSAELHELATLPRTETGSGSP-NH2)	≥ 200	0.012	100		≥ 200		≥ 200	0.035	0.159	≥ 200	≥ 200	0.067	≥ 200		> 45	≥ 200	0.017	≥ 200	0.05
CC(C)C[C@H](NC(=O)[C@H](C)NC(=O)[C@H](C)NC(=O)[C@@H](NC(=O)[C@H](CO)NC(=O)[C@H](CC(C)C)NC(=O)[C@H](CCC(=O)O)NC(=O)[C@H](CO)NC(=O)[C@H](C)NC(=O)CC[C@H](NC(=O)CCCCCCCCCCCCCCCCCCC(=O)O)C(=O)O)[C@@H](C)O)C(=O)NCC(=O)N[C@@H](CCCNC(=N)N)C(=O)N[C@@H](CC(C)C)C(=O)N[C@@H](CO)C(=O)N[C@H](CCC(=O)O)C(=O)N[C@@H](CCC(=O)O)C(=O)N[C@@H](CC(C)C)C(=O)N[C@@H](Cc1cnc[nH]1)C(=O)N[C@@H](CCC(=O)O)C(=O)N[C@@H](CC(C)C)C(=O)N[C@@H](C)C(=O)N[C@H](C(=O)N[C@@H](CC(C)C)C(=O)N1CCC[C@H]1C(=O)N[C@@H](CCCNC(=N)N)C(=O)N[C@H](C(=O)N[C@@H](CCC(=O)O)C(=O)N[C@H](C(=O)NCC(=O)N[C@@H](CO)C(=O)NCC(=O)N[C@@H](CO)C(=O)N1CCC[C@H]1C(N)=O)[C@@H](C)O)[C@@H](C)O)[C@@H](C)O ({C20 diacid-γGlu}-ASELSTAALGRLS[dE]ELHELATLPRTETGSGSP-NH2)	≥ 200	0.014			≥ 200		≥ 200	0.023	0.029	≥ 200	≥ 200	0.094	≥ 200			≥ 200	0.02	≥ 200	0.022
